Experimental data published in patent US20220395500A1, “SMALL MOLECULE ACTIVATORS OF INTERFERON REGULATORY FACTOR 3 AND METHODS OF USE THEREOF” (Neuralexo, Inc., priority 2020, published 2022).

Columns and labels:
THP1-Dual cells = assay: THP1-Dual cytotoxicity (Cell Titer Glo, ATP); assay type: cell-based, human; settings: Human Reporter Cell Line THP1; read-out: Thp1 cytotox CC50
Method in brief: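 CC50, the concentration killing half the cells, was derived from ATP-dependent CellTiter-Glo luminescence. Cells were THP1-Dual (human) and compound was tested as an 8-point dose-response series, with viability read in the same plate.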

[1] = test system: ISRE-firefly luciferase reporter in RAW264.7 cells; assay: RAW264.7 ISRE-firefly luciferase reporter assay; assay type: cell-based, mouse
Description: Data is depicted as fold increase ISRE activity vs matched vehicle, plotted against log[agonist] (M).
To characterize a small directed subset of molecules known to activate IRF3, mouse macrophage cells (RAW264.7) containing an ISRE-firefly luciferase reporter with a constitutively active renilla luciferase internal control for normalization (Promega) was utilized. IRF3 can activate ISRE through direct binding and via feed-forward mechanisms through potent induction of IFNβ. […] Specifically, RAW264.7 cells containing ISRE firefly luciferase reporter were treated with indicated compounds for 3 hours and luciferase activity was determined.

Neuro2a cells = assay: Gene induction in Neuro2a cells (qtPCR); assay type: cell-based, mouse; settings: 10 ug/ml, 3 hours, compared to 5′pppRNA
Procedure: (§1) RNA was collected from cell pellets and qtPCR was performed with indicated primers. Data is depicted as mRNA fold-change versus vehicle. Values are normalized to actin and are presented as fold change over vehicle control.
(§2) Total RNA isolated from brain cortex, or RNA from cell culture, was reverse transcribed using an Omniscript Reverse Transcription kit (Qiagen). Quantitative PCR was performed using the TaqMan Gene Expression Assays (Applied Biosystems) on an ABI-prism 7700. Results were normalized to β-actin expression and analyzed relative to appropriate controls. The relative quantification of the gene of interest was determined using the comparative CT method (2^−ΔΔCt)
(§3) Since inflammatory pathways mediated by NF-κB are known to have negative effects on stroke outcome, the induction of key detrimental genes including TNF and IL-6 in response to drug treatment was evaluated. […] RNA was collected from cell pellets and qtPCR was performed with indicated primers. Values are normalized to actin and are presented as fold change over vehicle control.

BV2 cells = assay: Gene induction in BV2 cells (qtPCR); assay type: cell-based, mouse; settings: 10 ug/ml, 3 hours, compared to 5′pppRNA
Procedure: as §1, §2, §3

[2] = test system: IRF3 related genes in brain cortical tissue; assay: DMXAA-induced IRF-related gene expression in mouse brain cortex; assay type: in vivo
Procedure: FIG. 7A is a bar graph depicting DMXAA-induced induction of IRF-related gene expression in mice. […] RNA was extracted and qtPCR was performed with indicated primers. Data is depicted as mRNA fold-change versus vehicle. Values depicted are group means+/−SEM; n=4 per group.
as §2
Values depicted are group means+/−SEM; n=4 per group.

cerebral ischemic injury = assay: Middle cerebral artery occlusion (MCAO), infarct volume; assay type: in vivo, mouse; settings: 60 minute MCAO, 24 hours
Procedure: Mice were anesthetized and subjected to middle cerebral artery occlusion (MCAO) using the monofilament suture method. Briefly, a silicone-coated 7-0 monofilament nylon surgical suture was threaded through the external carotid artery to the internal carotid artery to block the middle cerebral artery; […] The suture was then removed to restore blood flow. Mice undergoing ischemic preconditioning followed by injurious ischemia were rested in their home cage for 72 h before receiving the second MCAO (45 min). Cerebral blood flow (CBF) was monitored throughout surgery by laser Doppler flowmetry. The mean CBF value between groups was consistent for each experiment. […] Body temperature was monitored and maintained at 37° C. with a thermostat-controlled heating pad.
Mouse brain was sliced into 7×1 mm coronal sections before 2,3,5-triphenyltetrazolium chloride TTC staining, and the volume of infarct was determined by summing of the area of infarct from individual slices. The infarct size for each image was determined using NIH image analyses. […]
IRFs are master regulators of innate immune receptors, constituting a family of DNA-binding proteins expressed in a variety of tissues. […] Infarct volume was measured 24 hours after surgery. […] Specifically, gene transcription was measured in the brain 24 hours post MCAO in LPS preconditioned wildtype, IRF3 deficient, and IRF7 deficient mice using quantitative PCR. […]

[3] = 10 mg/kg IP, brain tissue at 3 hours

Row | SMILES | CC50 (THP1-Dual cells) | EC50 ([1]; Mus musculus, RAW264.7, expanded dose-response study, read-out: EC50 for activating mouse ISRE) | ISRE activation ([1]; RAW264.7, 3 hours post-treatment, 96-well) | induction of IRF-regulated genes RSAD2 and IFIT1 (Neuro2a cells) | induction of IRF-regulated genes RSAD2 and IFIT1 (BV2 cells) | IRF3 related gene expression in brain [2, 3] | induction of pro-inflammatory genes TNF in brain [2, 3] | IRF-mediated gene induction in the brain ([2]; 5-fold lower dose (2 mg/kg IP), 3 hours, compared to vehicle) | protection against ischemic injury in mice lacking IRF3 (cerebral ischemic injury; IRF3 KO mice, 250 μg IP) | reduction in ischemic injury (infarct volume) compared to controls (cerebral ischemic injury; wild-type mice, 250 μg IP at onset of reperfusion)
1 | COc1ccc(C(=O)Nc2cc(-c3nc4ccccc4s3)ccc2C)cc1[N+](=O)[O-] [ND-38] | 44.9 µM | – | – | – | – | – | – | – | – | –
2 | Cc1ccc2c(=O)c3cccc(CC(=O)O)c3oc2c1C [DMXAA, 5,6-dimethylxanthenone-4-acetic acid] | – | ~16 µM | most potent activators | most robust induction | most robust induction | significant increase | minimal induction | minimal increase | not protected | 2 fold
